Read-outs that look alike come from different tables or passages of the source.

The target of series [1] is HSV polymerase (Human herpesvirus 1, UniProt P04293). Put plainly: HSV polymerase assay (Table 1). It counts as biochemical.
Series [2] addresses VZV polymerase (Varicella-zoster virus, UniProt P09252). As to the kind of experiment: VZV polymerase assay (Table 1). The class given is biochemical.
For series [3], the target named is T1, HCMV polymerase (Human cytomegalovirus, UniProt P08546).
T1 construct: made in house; host or cells: recombinant baculovirus-infected SF-9 cells
T1 sequence (P08546 whole entry): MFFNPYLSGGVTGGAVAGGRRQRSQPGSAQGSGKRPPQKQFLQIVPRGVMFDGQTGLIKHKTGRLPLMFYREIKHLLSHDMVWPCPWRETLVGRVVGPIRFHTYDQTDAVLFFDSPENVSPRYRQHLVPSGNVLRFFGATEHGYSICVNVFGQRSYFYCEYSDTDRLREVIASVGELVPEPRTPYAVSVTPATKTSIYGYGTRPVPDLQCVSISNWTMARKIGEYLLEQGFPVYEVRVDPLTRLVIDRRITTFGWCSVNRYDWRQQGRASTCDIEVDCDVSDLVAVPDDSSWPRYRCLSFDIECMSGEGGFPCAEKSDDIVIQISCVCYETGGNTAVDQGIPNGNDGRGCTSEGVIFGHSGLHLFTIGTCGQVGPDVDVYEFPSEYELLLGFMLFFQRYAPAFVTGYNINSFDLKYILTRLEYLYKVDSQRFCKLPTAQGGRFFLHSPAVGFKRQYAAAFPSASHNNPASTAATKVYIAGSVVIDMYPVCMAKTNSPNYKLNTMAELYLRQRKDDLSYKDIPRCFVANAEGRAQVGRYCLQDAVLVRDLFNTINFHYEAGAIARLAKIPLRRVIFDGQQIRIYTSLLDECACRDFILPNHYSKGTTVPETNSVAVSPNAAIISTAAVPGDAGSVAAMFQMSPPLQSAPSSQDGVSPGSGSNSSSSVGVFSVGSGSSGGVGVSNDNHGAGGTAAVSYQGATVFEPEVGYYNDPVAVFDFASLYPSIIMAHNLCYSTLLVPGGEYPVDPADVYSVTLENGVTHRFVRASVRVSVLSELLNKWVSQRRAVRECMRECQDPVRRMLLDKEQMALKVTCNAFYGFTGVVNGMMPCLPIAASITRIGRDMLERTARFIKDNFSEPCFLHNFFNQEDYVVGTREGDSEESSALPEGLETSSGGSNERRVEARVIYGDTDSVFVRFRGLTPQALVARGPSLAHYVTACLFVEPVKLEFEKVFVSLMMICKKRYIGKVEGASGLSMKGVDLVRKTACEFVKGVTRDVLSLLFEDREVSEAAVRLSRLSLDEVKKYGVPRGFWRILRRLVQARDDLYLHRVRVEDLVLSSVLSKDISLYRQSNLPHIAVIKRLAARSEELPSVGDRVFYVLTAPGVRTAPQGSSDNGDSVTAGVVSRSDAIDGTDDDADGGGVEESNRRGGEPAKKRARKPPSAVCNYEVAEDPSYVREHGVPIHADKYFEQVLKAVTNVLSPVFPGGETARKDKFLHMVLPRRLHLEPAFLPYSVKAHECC
As to the kind of experiment: HCMV polymerase scintillation proximity assay (SPA). The class given is biochemical. Here is the method:
The HCMV polymerase assay is performed using a scintillation proximity assay (SPA) as described in several references, such as N. D. Cook, et al., Pharmaceutical Manufacturing International, pages 49-53 (1992); KY Takeuchi, Laboratory Practice, September issue (1992); U.S. Pat. No. 4,568,649 (1986); which are incorporated by reference herein. Reactions are performed in 96-well plates. The assay is conducted in 100 yl volume with 5.4 mM HEPES (pH 7.5), 11.7 mM KCl, 4.5 mM MgCl2, 0.36 mg/ml BSA, and 90 nM ^3H-dTTP. Assays are run with and without CHAPS, (3-[(3-Cholamidopropyl)-dimethylammonio]-1-propane-sulfonate) at a final concentration of 2 mM. HCMV polymerase is diluted in enzyme dilution buffer containing 50% glycerol, 250 mM NaCl, 10 mM HEPES (pH 7.5), 100 μg/ml BSA, and 0.01% sodium azide. The HCMV polymerase, which is expressed in recombinant baculovirus-infected SF-9 cells and purified according to literature procedures, is added at 10% (or 10 μl) of the final reaction volume, i.e., 100 μl. Compounds are diluted in 50% DMSO and 10 μl are added to each well. Control wells contain an equivalent concentration of DMSO. Unless noted otherwise, reactions are initiated via the addition of 6 nM biotinylated poly(dA)-oligo(dT) template/primer to reaction mixtures containing the enzyme, substrate, and compounds of interest. Plates are incubated in a 25° C. or 37° C. H2O bath and terminated via the addition of 40 μl/reaction of 0.5 M EDTA (pH 8) per well. Reactions are terminated within the time-frame during which substrate incorporation is linear and varied depending upon the enzyme and conditions used, i.e., 30 min. for HCMV polymerase. Ten (10) μl of streptavidin-SPA beads (20 mg/ml in PBS/10% glycerol) are added following termination of the reaction. Plates are incubated 10 min. at 37° C., then equilibrated to room temperature, and counted on a Packard Topcount. Linear regressions are performed and IC50's are calculated using computer software.
A modified version of the above HCMV polymerase assay is performed as described above, but with the following changes: Compounds are diluted in 100% DMSO until final dilution into assay buffer. In the previous assay, compounds are diluted in 50% DMSO. 4.5 mM Dithiothreitol (DTT) is added to the polymerase buffer.
All results are listed as Polymerase IC50 ([…]) values. In Table 1, the term “n.d.” refers to activity data not determined.

Where [4] appears, read: HSV polymerase, read-out: Polymerase IC50 HSV.
The mark [5] stands for this setting: VZV polymerase, read-out: Polymerase IC50 VZV.
Setting [6] is: HCMV polymerase, SPA, read-out: Polymerase IC50 HCMV.

HSV polymerase, sequence (P04293 whole entry): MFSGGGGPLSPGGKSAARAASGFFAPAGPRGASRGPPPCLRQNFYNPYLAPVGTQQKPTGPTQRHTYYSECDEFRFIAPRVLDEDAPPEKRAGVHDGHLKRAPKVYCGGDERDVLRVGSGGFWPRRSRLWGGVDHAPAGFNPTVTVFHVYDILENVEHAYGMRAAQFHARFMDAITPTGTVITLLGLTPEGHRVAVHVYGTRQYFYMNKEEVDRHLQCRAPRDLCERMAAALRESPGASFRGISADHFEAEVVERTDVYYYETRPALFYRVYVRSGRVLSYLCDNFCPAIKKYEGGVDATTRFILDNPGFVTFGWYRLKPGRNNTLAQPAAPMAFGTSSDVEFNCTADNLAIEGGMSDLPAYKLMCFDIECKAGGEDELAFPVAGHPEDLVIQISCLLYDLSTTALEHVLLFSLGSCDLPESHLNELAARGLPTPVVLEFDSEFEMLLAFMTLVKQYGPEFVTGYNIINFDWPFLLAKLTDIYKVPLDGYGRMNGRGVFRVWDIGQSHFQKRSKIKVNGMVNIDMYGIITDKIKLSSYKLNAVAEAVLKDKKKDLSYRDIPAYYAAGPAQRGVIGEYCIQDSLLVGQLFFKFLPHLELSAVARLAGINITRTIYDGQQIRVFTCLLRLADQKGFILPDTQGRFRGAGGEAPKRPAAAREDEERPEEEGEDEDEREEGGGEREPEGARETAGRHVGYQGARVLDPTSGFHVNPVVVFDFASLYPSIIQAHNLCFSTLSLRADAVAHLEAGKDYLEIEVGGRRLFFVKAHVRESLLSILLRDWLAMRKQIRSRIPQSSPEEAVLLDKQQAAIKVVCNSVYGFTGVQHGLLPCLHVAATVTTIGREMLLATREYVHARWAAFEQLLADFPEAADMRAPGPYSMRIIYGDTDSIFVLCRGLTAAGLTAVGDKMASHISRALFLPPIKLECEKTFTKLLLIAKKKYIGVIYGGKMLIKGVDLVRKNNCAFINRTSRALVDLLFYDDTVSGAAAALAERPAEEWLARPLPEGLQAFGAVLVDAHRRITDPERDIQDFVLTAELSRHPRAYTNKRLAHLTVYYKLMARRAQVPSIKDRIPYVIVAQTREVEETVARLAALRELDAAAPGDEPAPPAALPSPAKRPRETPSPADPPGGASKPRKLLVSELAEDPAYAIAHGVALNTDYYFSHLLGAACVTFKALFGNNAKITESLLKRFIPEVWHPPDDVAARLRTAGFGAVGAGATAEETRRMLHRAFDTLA
VZV polymerase, sequence (P09252 whole entry): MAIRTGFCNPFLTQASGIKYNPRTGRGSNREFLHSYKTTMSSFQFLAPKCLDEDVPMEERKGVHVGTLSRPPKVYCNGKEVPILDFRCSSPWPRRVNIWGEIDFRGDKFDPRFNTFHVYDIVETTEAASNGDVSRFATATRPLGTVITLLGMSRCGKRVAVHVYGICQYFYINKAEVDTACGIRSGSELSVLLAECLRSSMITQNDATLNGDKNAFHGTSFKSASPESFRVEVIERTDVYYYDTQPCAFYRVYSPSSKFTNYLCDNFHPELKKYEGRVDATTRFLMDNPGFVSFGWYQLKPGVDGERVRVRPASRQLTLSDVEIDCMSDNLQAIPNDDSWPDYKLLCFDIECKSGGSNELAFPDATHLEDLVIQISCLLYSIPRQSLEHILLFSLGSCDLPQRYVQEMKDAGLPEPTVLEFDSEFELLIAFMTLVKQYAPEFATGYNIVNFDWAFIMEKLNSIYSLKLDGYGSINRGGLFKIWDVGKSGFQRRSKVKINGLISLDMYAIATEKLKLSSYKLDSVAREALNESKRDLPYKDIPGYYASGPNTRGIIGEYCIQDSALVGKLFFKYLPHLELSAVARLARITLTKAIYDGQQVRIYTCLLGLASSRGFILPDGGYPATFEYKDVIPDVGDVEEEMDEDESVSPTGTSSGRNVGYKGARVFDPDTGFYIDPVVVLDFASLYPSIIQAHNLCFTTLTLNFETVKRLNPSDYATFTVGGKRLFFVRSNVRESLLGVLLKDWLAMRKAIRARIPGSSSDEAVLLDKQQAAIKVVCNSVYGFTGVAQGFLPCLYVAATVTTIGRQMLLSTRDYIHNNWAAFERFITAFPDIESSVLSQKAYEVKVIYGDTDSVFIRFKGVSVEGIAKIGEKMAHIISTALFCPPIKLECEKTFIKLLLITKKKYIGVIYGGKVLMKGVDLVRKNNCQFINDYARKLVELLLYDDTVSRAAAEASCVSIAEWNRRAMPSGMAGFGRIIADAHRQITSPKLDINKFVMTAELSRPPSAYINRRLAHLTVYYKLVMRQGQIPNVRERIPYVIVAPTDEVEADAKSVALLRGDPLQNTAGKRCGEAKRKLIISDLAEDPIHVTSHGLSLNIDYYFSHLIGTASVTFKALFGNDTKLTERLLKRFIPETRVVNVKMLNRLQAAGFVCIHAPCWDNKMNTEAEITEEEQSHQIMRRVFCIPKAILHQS

For the compound `CN(Cc1cc2c(=O)c(C(=O)NCc3ccc(Cl)cc3)cn(C)c2s1)C[C@@H](O)c1ccco1` [Example 2, (+)—N-(4-Chlorobenzyl)-2-((((R)-2-(2-furyl)-2-hydroxyethyl)(methyl)amino)-methyl)-7-methyl-4-oxo-4,7-dihydrothieno [2,3-b]pyridine-5-carboxamide], the 50% inhibitory concentration (IC50) in series [1] (setting [4]) amounted to 90 nM; in series [2] (setting [5]) it was 30 nM; in series [3] (setting [6]), 40 nM.
In the same order, the values of `CN(Cc1cc2c(=O)c(C(=O)NCc3ccc(Cl)cc3)cn(C)c2s1)CC(O)c1ccco1` (racemic) [Example 1, rac-N-(4-Chlorobenzyl)-2-(((2-(2-furyl)-2-hydroxyethyl)(methyl)amino)methyl)-7-methyl-4-oxo-4,7-dihydrothieno[2,3-b]pyridine-5-carboxamide] are 220 nM, 60 nM and 80 nM.
In turn, `CN(Cc1cc2c(=O)c(C(=O)NCc3ccc(Cl)cc3)cn(C)c2s1)CC(O)c1cn(C)cn1` (racemic) [Example 9, rac-N-(4-Chlorobenzyl)-2-(((2-hydroxy-2-(1-methyl-1H-imidazol-4-yl)ethyl) (methyl)amino)methyl)-7-methyl-4-oxo-4,7-dihydrothieno[2,3-b]pyridine-5-carboxamide] showed a melting point of 124 to 130 °C. Further, the IC50 in series [3] (setting [6]) was determined as 1060 nM.
In the case of `CN(Cc1cc2c(=O)c(C(=O)NCc3ccc(Cl)cc3)cn(CC(O)CO)c2s1)CC(O)c1cc2ccccc2o1` (racemic) [Example 25, rac-2-(((2-(1-Benzofuran-2-yl)-2-hydroxyethyl)(methyl)amino)methyl)-N-(4-chlorobenzyl)-7-(2,3-dihydroxypropyl)-4-oxo-4,7-dihydrothieno[2,3-b]pyridine-5-carboxamide], the IC50 in series [3] (setting [6]) was determined as 1800 nM.
`CN(Cc1cc2c(=O)c(C(=O)NCc3ccc(Cl)cc3)cn(C)c2s1)CC(O)c1ccc(Cl)o1` (stereo not drawn) [Example 33, N-(4-Chlorobenzyl)-2-(((2-(5-chloro-2-furyl)-2-hydroxyethyl)(methyl)amino)-methyl)-7-methyl-4-oxo-4,7-dihydrothieno[2,3-b]pyridine-5-carboxamide]: the figures for the half-maximal inhibitory concentration (IC50) in series [1] (setting [4]) and in series [3] (setting [6]) were 80 nM and 20 nM, respectively.
In the case of `CCCn1cc(C(=O)NCc2ccc(Cl)cc2)c(=O)c2cc(CN(C)CC(O)c3cc4ccccc4o3)sc21` (racemic) [Example 23, rac-2-(((2-(1-Benzofuran-2-yl)-2-hydroxyethyl)(methyl)amino)methyl)-N-(4-chlorobenzyl)-7-propyl-4-oxo-4,7-dihydrothieno[2,3-b]pyridine-5-carboxamide], the IC50 in series [3] (setting [6]) worked out at 260 nM.
For `CN(Cc1cc2c(=O)c(C(=O)NCc3ccc(Cl)cc3)cn(C)c2s1)CC(O)c1ccc(C#N)s1` (racemic) [Example 15, rac-N-(4-Chlorobenzyl)-2-(((2-(5-cyanothien-2-yl)-2-hydroxyethyl)(methyl)-amino)methyl)-7-methyl-4-oxo-4,7-dihydrothieno[2,3-b]pyridine-5-carboxamide], the melting point is 155 to 160 °C (dec.). Also, in series [3] (setting [6]), the IC50 was found to be 240 nM.
On to `CN(Cc1cc2c(=O)c(C(=O)NCc3ccc(Cl)cc3)cn(CCCO)c2s1)C[C@@H](O)c1ccco1` [Example 27, N-(4-Chlorobenzyl)-2-((((2R)-2-(2-furyl)-2-hydroxyethyl)(methyl)amino)methyl)-7-(3-hydroxypropyl)-4-oxo-4,7-dihydrothieno[2,3-b]pyridine-5-carboxamide], for which the results for the IC50 in series [1], in series [2] and in series [3] were 590 nM, 280 nM and 360 nM, respectively.
For the compound `CCn1cc(C(=O)NCc2ccc(Cl)cc2)c(=O)c2cc(CN(C)CC(O)c3cc4ccccc4o3)sc21` (racemic) [Example 22, rac-2-(((2-(1-Benzofuran-2-yl)-2-hydroxyethyl)(methyl)amino)methyl)-N-(4-chlorobenzyl)-7-ethyl-4-oxo-4,7-dihydrothieno[2,3-b]pyridine-5-carboxamide], the IC50 in series [1] (setting [4]) came to 170 nM; in series [2] (setting [5]), 80 nM; in series [3] (setting [6]) it was 90 nM.
Take `CN(Cc1cc2c(=O)c(C(=O)NCc3ccc(Cl)cc3)cn(CC(O)CO)c2s1)C[C@@H](O)c1ccco1` (stereo partly drawn) [Example 26, N-(4-Chlorobenzyl)-7-(2,3-dihydroxypropyl)-2-((((2R)-2-(2-furyl)-2-hydroxy-ethyl)(methyl)amino)methyl)-4-oxo-4,7-dihydrothieno[2,3-b]pyridine-5-carboxamide]: the figures for the IC50 in series [1] (setting [4]), in series [2] (setting [5]) and in series [3] (setting [6]) were 540 nM, 330 nM and 150 nM, respectively.
Regarding `CN(Cc1cc2c(=O)c(C(=O)NCc3ccc(Cl)cc3)cn(C)c2s1)CC(O)c1nc2ccccc2s1` (racemic) [Example 17, rac-2-(((2-(1,3-Benzothiazol-2-yl)-2-hydroxyethyl)(methyl)amino)methyl)-N-(4-chlorobenzyl)-7-methyl-4-oxo-4,7-dihydrothieno[2,3-b]pyridine-5-carboxamide], the IC50 came to 390 nM in series [1] (setting [4]), 110 nM in series [2] (setting [5]) and 120 nM in series [3] (setting [6]).
In the same order, the values of `CCCn1cc(C(=O)NCc2ccc(Cl)cc2)c(=O)c2cc(CN(C)C[C@@H](O)c3ccco3)sc21` [Example 32, N-(4-Chlorobenzyl)-2-((((2R)-2-(2-furyl)-2-hydroxyethyl)(methyl)amino)methyl)-4-oxo-7-propyl-4,7-dihydrothieno[2,3-b]pyridine-5-carboxamide] are 740 nM, 220 nM and 180 nM.
In the same order, the values of `CN(Cc1cc2c(=O)c(C(=O)NCc3ccc(Cl)cc3)cn(C)c2s1)CC(O)c1cccs1` (racemic) [Example 6, rac-N-(4-Chlorobenzyl)-2-(((2-hydroxy-2-thien-2-ylethyl)(methyl)amino)methyl)-7-methyl-4-oxo-4,7-dihydrothieno[2,3-b]pyridine-5-carboxamide] are 470 nM, 150 nM and 170 nM.
Regarding `CN(Cc1cc2c(=O)c(C(=O)NCc3ccc(Cl)cc3)cn(CCOCCO)c2s1)C[C@@H](O)c1ccco1` [Example 35, N-(4-Chlorobenzyl)-2-((((2R)-2-(2-furyl)-2-hydroxyethyl)(methyl)amino)methyl)-7-(2-(2-hydroxyethoxy)ethyl)-4-oxo-4,7-dihydrothieno[2,3-b]pyridine-5-carboxamide], in series [3] (setting [6]), the IC50 came to 560 nM.
With `CN(Cc1cc2c(=O)c(C(=O)NCc3ccc(Cl)cc3)cn(CCO)c2s1)C[C@@H](O)c1ccco1` [Example 34, N-(4-Chlorobenzyl)-2-((((2R)-2-(2-furyl)-2-hydroxyethyl)(methyl)amino)methyl)-7-(2-hydroxyethyl)-4-oxo-4,7-dihydrothieno[2,3-b]pyridine-5-carboxamide], the IC50 was 1080 nM in series [1] (setting [4]), 340 nM in series [2] (setting [5]) and 240 nM in series [3] (setting [6]).
In turn, `CN(Cc1cc2c(=O)c(C(=O)NCc3ccc(Cl)cc3)cn(CCCO)c2s1)CC(O)c1cc2ccccc2o1` (racemic) [Example 28, rac-2-(((2-(1-Benzofuran-2-yl)-2-hydroxyethyl)(methyl)amino)methyl)-N-(4-chlorobenzyl)-7-(3-hydroxypropyl)-4-oxo-4,7-dihydrothieno[2,3-b]pyridine-5-carboxamide] displayed an IC50 in series [3] of 300 nM.
Turning to `CN(Cc1cc2c(=O)c(C(=O)NCc3ccc(Cl)cc3)cn(C)c2s1)C[C@@H](O)c1ccn[nH]1` (single isomer, unassigned) [Example 19], the half-maximal inhibitory concentration (IC50) turned out to be 780 nM in series [1] (setting [4]), 290 nM in series [2] (setting [5]) and 210 nM in series [3] (setting [6]).
Take `COCCn1cc(C(=O)NCc2ccc(Cl)cc2)c(=O)c2cc(CN(C)C[C@@H](O)c3ccco3)sc21` [Example 21, N-(4-Chlorobenzyl)-2-((((2R)-2-(2-furyl)-2-hydroxyethyl)(methyl)amino)methyl)-7-(2-methoxyethyl)-4-oxo-4,7-dihydrothieno[2,3-b]pyridine-5-carboxamide]: the IC50 in series [3] (setting [6]) amounted to 350 nM.
On the same count and under the same terms, the same measure for `CN(Cc1cc2c(=O)c(C(=O)NCc3ccc(Cl)cc3)cn(CCO)c2s1)CC(O)c1cc2ccccc2o1` (racemic) [Example 29, rac-2-(((2-(1-Benzofuran-2-yl)-2-hydroxyethyl)(methyl)amino)methyl)-N-(4-chlorobenzyl)-7-(2-hydroxyethyl)-4-oxo-4,7-dihydrothieno[2,3-b]pyridine-5-carboxamide]: 600 nM.
